The source made the active and inactive calls.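 Rule for the calls: active = mass spectrometry shows the compound covalently bound to the catalytic cysteine of glutathione transferase omega 1; inactive = no covalent bond to that cysteine seen.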
Target: Glutathione S-transferase omega-1 (Homo sapiens) (UniProt P78417)
Assay: GSTO1 catalytic cysteine binding mode – biophysical, LC-MS/MS, mechanism study, late-stage follow-up (AID 449772)
Conditions: purified GSTO1, LC-MS/MS active-site cysteine labeling

Chain of Glutathione S-transferase omega-1 (Homo sapiens) (P78417 whole entry, looked up): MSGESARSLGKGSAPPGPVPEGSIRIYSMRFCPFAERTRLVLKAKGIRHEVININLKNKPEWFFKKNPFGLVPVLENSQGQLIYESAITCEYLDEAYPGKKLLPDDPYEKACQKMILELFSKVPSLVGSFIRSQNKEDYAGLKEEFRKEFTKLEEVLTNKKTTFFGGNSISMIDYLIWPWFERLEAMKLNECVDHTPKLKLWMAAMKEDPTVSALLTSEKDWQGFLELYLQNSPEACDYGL

Row | Compound | outcome
1 | COc1ccc(C(C(=O)NC2CCCCC2)N(C(=O)CCl)c2cccc(Cl)c2)cc1 (configuration not stated) | active
2 | O=C(NC1CCCCC1)C(c1cccnc1)N(C(=O)CCl)c1ccc(F)cc1 (configuration not stated) | active

Reference: PubChem BioAssay AID449772 (The Scripps Research Institute Molecular Screening Center, 2010)
